How the values were obtained:
C5a = assay: ELISA of complement anaphylatoxin C5a in serum; format: biochemical, human
Method: (§1) Complement anaphylatoxins C5a and C3a and the lytic complex (MAC, C5b-9) in the serum of healthy volunteers were determined quantitatively using commercially available ELISA (“enzyme-linked immunosorbent assay”) test systems. As described above, initially serum samples having various concentrations of taurolidine (0.1-5%, in parallel with samples containing Ringer solution in corresponding dilution ratios=controls) were incubated for 30 minutes at 37° C. The samples were then diluted according to the protocol of the manufacturer and pipetted into the wells of the microtiter plate. The subsequent incubation/washing steps were carried out according to the protocol of the manufacturer. […] The extinction was measured using an ELISA plate reader and the values were then converted to concentrations using the standard samples which had also been measured.

[1] = tested on: membrane attack complex (MAC, C5b-9); assay: ELISA of lytic complex (MAC, C5b-9) in serum; format: biochemical, human; conditions: all dosis ranges studied (0.1-5% taurolidine); FIG. 7
Method: as §1

complement system = assay: CH50 assay (hemolysis of sensitized sheep erythrocytes by human serum); format: biochemical
Method: Using the CH50 assay, it is possible to assess functionally the total activity of the complement system, especially the classic activation pathway. […] In accordance with the protocol, a dilution series (1:20-1:480) was prepared for each condition and washed sheep erythrocytes which had been preincubated with hemolysin reagent were then added. During subsequent incubation at 37° C. for exactly 1 hour the erythrocytes were lysed depending on the activity of the complement system. In each experiment, a negative control (no hemolysis), a sample with 50% hemolysis (CH50, by dilution with dist. water) and a sample with 100% hemolysis (CH100, by dilution with dist. water) were analyzed in each case. After a final centrifugation, in each case 1 ml of the supernatant of each sample was removed and the absorption at 541 nm was determined photometrically. The determined absorptions were finally plotted against the dilutions. The activity (or the ability to lyse) of the complement system under the respective conditions could be assessed by the shape of the curves (shift to the left=complement activation) and by determining the dilution at which 50% of the erythrocytes have been lysed.

C3a = assay: ELISA of complement anaphylatoxin C3a in serum; format: biochemical, human
Method: as §1

[2] = at 0.5% taurolidine (concentration maximum)

## O=S1(=O)CCN(CN2CCS(=O)(=O)NC2)CN1 [taurolidine, 4,4′-methylenebis-(1,2,4-thiadiazine-1,1-dioxide)]
C5a; at 0.1% taurolidine (minimum)
  C5a: no or even a tendency of reduced
C5a; [2]
  formation of C5a: enhances the formation
C5a; serum with taurolidine 0.1-5%, 30 min, 37° C., FIGS. 5-6
  concentration of complement component C5a compared to untreated serum: increased compared to untreated serum
[1]
  serum concentration of the membrane attack complex (MAC): elevated significantly
Complement system; human serum of healthy volunteers incubated with 0.1-1% taurolidine, 30 min, 37° C., FIGS. 1-3
  hemolytic activity (activity of the complement system): significantly increases
Complement system; incubation at 0-4° C., FIG. 2
  complement activation (hemolytic activity), temperature dependence: not at 0-4 °C
C3a; at 0.1% taurolidine (minimum)
  C3a: no or even a tendency of reduced
C3a; [2]
  formation of C3a: enhances the formation
C3a; serum with taurolidine 0.1-5%, 30 min, 37° C., FIG. 4
  concentration of complement component C3a compared to untreated serum: increased compared to untreated serum
